Assay results from patent publication US9051310B2, “Nicotinamide derivative or salt thereof” (FUJIFILM Corporation, priority 2011, dated 2015).

These molecules were tested against T1, glutathione S-transferase (GST)-linked full-length human Syk protein (Homo sapiens, UniProt P43405) (assay: Syk enzyme assay). Conditions: 0.83 nM Syk, time-resolved fluorescence; read-out: IC50 of Syk-inhibitory activity.
T1 construct: glutathione S-transferase (GST)-linked full-length human Syk protein; purchased Carna Biosciences; host or cells: Baculovirus expression system
Assay type: biochemical
Outline: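 Phosphotyrosine on a biotin-peptide substrate (0.5 μM) was read by time-resolved fluorescence at 615 and 665 nm with Eu-anti-pTyr antibody and APC-streptavidin after 1 h EDTA stop.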

SMILES | IC50
COCCn1ncc2c(Nc3nc(N[C@@H]4CCCC[C@@H]4N)c(F)cc3C(N)=O)cncc21 [Example 2-384, 6-(((1R,2S)-2-aminocyclohexyl)amino)-5-fluoro-2-((1-(2-methoxyethyl)-1H-pyrazolo[3,4-c]pyridin-4-yl)amino)nicotinamide] | < 10 nM
COCCn1ncc2c(Nc3nc(N[C@@H]4CCOC[C@@H]4N)c(F)cc3C(N)=O)cncc21 [Example 2-385, 6-(((3R,4R)-3-aminotetrahydro-2H-pyran-4-yl)amino)-5-fluoro-2-((1-(2-methoxyethyl)-1H-pyrazolo[3,4-c]pyridin-4-yl)amino)nicotinamide] | 10 to 50 nM
COCCn1ncc2c(Nc3nc(N[C@@H](CN)CC(C)C)c(F)cc3C(N)=O)cncc21 [Example 2-386, (R)-6-((1-amino-4-methylpentan-2-yl)amino)-5-fluoro-2-((1-(2-methoxyethyl)-1H-pyrazolo[3,4-c]pyridin-4-yl)amino)nicotinamide] | < 10 nM
CC[C@@H](Nc1nc(Nc2cncc3c2cnn3CCOC)c(C(N)=O)cc1F)[C@H](C)N [Example 2-387, 6-(((2S,3R)-2-aminopentan-3-yl)amino)-5-fluoro-2-((1-(2-methoxyethyl)-1H-pyrazolo[3,4-c]pyridin-4-yl)amino)nicotinamide] | 10 to 50 nM
COCCn1ncc2c(Nc3nc(N[C@H](C4CC4)[C@H](C)N)c(F)cc3C(N)=O)cncc21 [Example 2-388, 6-(((1R,2S)-2-amino-1-cyclopropylpropyl)amino)-5-fluoro-2-((1-(2-methoxyethyl)-1H-pyrazolo[3,4-c]pyridin-4-yl)amino)nicotinamide] | < 10 nM
CCCC[C@@H](Nc1nc(Nc2cncc3c2cnn3CCOC)c(C(N)=O)cc1F)[C@H](C)N [Example 2-389, 6-(((2S,3R)-2-aminoheptan-3-yl)amino)-5-fluoro-2-((1-(2-methoxyethyl)-1H-pyrazolo[3,4-c]pyridin-4-yl)amino)nicotinamide] | 10 to 50 nM
COCCn1ncc2c(Nc3nc(N[C@H](CC(C)C)[C@H](C)N)c(F)cc3C(N)=O)cncc21 [Example 2-390, 6-(((2S,3R)-2-amino-5-methylhexan-3-yl)amino)-5-fluoro-2-((1-(2-methoxyethyl)-1H-pyrazolo[3,4-c]pyridin-4-yl)amino)nicotinamide] | < 10 nM
COCCn1ncc2c(Nc3nc(N[C@H](C4CCC4)[C@H](C)N)c(F)cc3C(N)=O)cncc21 [Example 2-391, 6-(((1R,2S)-2-amino-1-cyclobutylpropyl)amino)-5-fluoro-2-((1-(2-methoxyethyl)-1H-pyrazolo[3,4-c]pyridin-4-yl)amino)nicotinamide] | < 10 nM
CC(C)C[C@H](CN)Nc1nc(Nc2cncc3c2cnn3CC(F)F)c(C(N)=O)cc1F [Example 2-395, (R)-6-((1-amino-4-methylpentan-2-yl)amino)-2-((1-(2,2-difluoroethyl)-1H-pyrazolo[3,4-c]pyridin-4-yl)amino)-5-fluoronicotinamide] | < 10 nM
CC[C@@H](Nc1nc(Nc2cncc3c2cnn3CC(F)F)c(C(N)=O)cc1F)[C@H](C)N [Example 2-396, 6-(((2S,3R)-2-aminopentan-3-yl)amino)-2-((1-(2,2-difluoroethyl)-1H-pyrazolo[3,4-c]pyridin-4-yl)amino)-5-fluoronicotinamide] | < 10 nM
C[C@H](N)[C@H](Nc1nc(Nc2cncc3c2cnn3CC(F)F)c(C(N)=O)cc1F)C1CC1 [Example 2-398, 6-(((1R,2S)-2-amino-1-cyclopropylpropyl)amino)-2-((1-(2,2-difluoroethyl)-1H-pyrazolo[3,4-c]pyridin-4-yl)amino)-5-fluoronicotinamide] | < 10 nM
CC(C)C[C@@H](Nc1nc(Nc2cncc3c2cnn3CC(F)F)c(C(N)=O)cc1F)[C@H](C)N [Example 2-400, 6-(((2S,3R)-2-amino-5-methylhexan-3-yl)amino)-2-((1-(2,2-difluoroethyl)-1H-pyrazolo[3,4-c]pyridin-4-yl)amino)-5-fluoronicotinamide] | < 10 nM
C[C@H](N)[C@H](Nc1nc(Nc2cncc3c2cnn3CC(F)F)c(C(N)=O)cc1F)C1CCC1 [Example 2-401, 6-(((1R,2S)-2-amino-1-cyclobutylpropyl)amino)-2-((1-(2,2-difluoroethyl)-1H-pyrazolo[3,4-c]pyridin-4-yl)amino)-5-fluoronicotinamide] | < 10 nM
CC[C@H](N)[C@@H](C)Nc1nc(Nc2cncc3c2cnn3CC(F)F)c(C(N)=O)cc1F [Example 2-402, 6-(((2R,3S)-3-aminopentan-2-yl)amino)-2-((1-(2,2-difluoroethyl)-1H-pyrazolo[3,4-c]pyridin-4-yl)amino)-5-fluoronicotinamide] | < 10 nM
Cc1ncc(Nc2nc(N[C@H](c3ccccn3)[C@H](C)N)c(F)cc2C(N)=O)cc1-n1nccn1 [Example 2-403, 6-(((1S,2S)-2-amino-1-(pyridin-2-yl)propyl)amino)-5-fluoro-2-((6-methyl-5-(2H-1,2,3-triazol-2-yl)pyridin-3-yl)amino)nicotinamide] | 10 to 50 nM
COc1ncc(Nc2nc(N[C@@H]3CCCC[C@@H]3N)c(F)cc2C(N)=O)c2cnn(C)c12 [Example 2-407, 6-(((1R,2S)-2-aminocyclohexyl)amino)-5-fluoro-2-((7-methoxy-1-methyl-1H-pyrazolo[3,4-c]pyridin-4-yl)amino)nicotinamide] | 10 to 50 nM

SMILES | IC50
COc1ncc(Nc2nc(N[C@H](C3CC3)[C@H](C)N)c(F)cc2C(N)=O)c2cnn(C)c12 [Example 2-408, 6-(((1R,2S)-2-amino-1-cyclopropylpropyl)amino)-5-fluoro-2-((7-methoxy-1-methyl-1H-pyrazolo[3,4-c]pyridin-4-yl)amino)nicotinamide] | 50 to 100 nM
COc1cc(Nc2nc(N[C@H](c3ccccc3F)[C@H](C)N)c(F)cc2C(N)=O)cc(OC)n1 [Example 2-411, 6-(((1R,2S)-2-amino-1-(2-fluorophenyl)propyl)amino)-2-((2,6-dimethoxypyridin-4-yl)amino)-5-fluoronicotinamide] | < 10 nM
Cc1ncc(Nc2nc(N[C@H](c3cccc(F)c3)[C@H](C)N)c(F)cc2C(N)=O)cc1-n1nccn1 [Example 2-412, 6-(((1R,2S)-2-amino-1-(3-fluorophenyl)propyl)amino)-5-fluoro-2-((6-methyl-5-(2H-1,2,3-triazol-2-yl)pyridin-3-yl)amino)nicotinamide] | 10 to 50 nM
COc1cc(Nc2nc(N[C@@H](CN)Cc3ccccc3)c(F)cc2C(N)=O)cc(OC)n1 [Example 2-418, (R)-6-((1-amino-3-phenylpropan-2-yl)amino)-2-((2,6-dimethoxypyridin-4-yl)amino)-5-fluoronicotinamide] | 10 to 50 nM
CN(C)c1nn(C)c2ccc(Nc3nc(N[C@@H](CN)Cc4ccccc4)c(F)cc3C(N)=O)cc12 [Example 2-421, (R)-6-((1-amino-3-phenylpropan-2-yl)amino)-2-((3-(dimethylamino)-1-methyl-1H-indazol-5-yl)amino)-5-fluoronicotinamide] | 10 to 50 nM
Cc1ncc(Nc2nc(N[C@H](Cc3ccccc3)[C@H](C)N)c(F)cc2C(N)=O)cc1-n1nccn1 [Example 2-422, 6-(((2R,3S)-3-amino-1-phenylbutan-2-yl)amino)-5-fluoro-2-((6-methyl-5-(2H-1,2,3-triazol-2-yl)pyridin-3-yl)amino)nicotinamide] | 10 to 50 nM
CCn1ncc2cc(Nc3nc(N[C@H](Cc4ccccc4)[C@H](C)N)c(F)cc3C(N)=O)ccc21 [Example 2-423, 6-(((2R,3S)-3-amino-1-phenylbutan-2-yl)amino)-2-((1-ethyl-1H-indazol-5-yl)amino)-5-fluoronicotinamide] | < 10 nM
C[C@H](N)[C@@H](Cc1ccccc1)Nc1nc(Nc2ccc3c(c2)c(N(C)C)nn3C)c(C(N)=O)cc1F [Example 2-424, 6-(((2R,3S)-3-amino-1-phenylbutan-2-yl)amino)-2-((3-(dimethylamino)-1-methyl-1H-indazol-5-yl)amino)-5-fluoronicotinamide] | < 10 nM
Cc1ncc(Nc2nc(N[C@H](Cc3ccccc3)[C@H](C)N)c(F)cc2C(N)=O)cc1F [Example 2-426, 6-(((2R,3S)-3-amino-1-phenylbutan-2-yl)amino)-5-fluoro-2-((5-fluoro-6-methylpyridin-3-yl)amino)nicotinamide] | 10 to 50 nM
CC[C@@H](Nc1nc(Nc2ccc3c(c2)c(N2CCCC2)nn3C)c(C(N)=O)cc1F)[C@H](C)N [Example 2-429, 6-(((2S,3R)-2-aminopentan-3-yl)amino)-5-fluoro-2-((1-methyl-3-(pyrrolidin-1-yl)-1H-indazol-5-yl)amino)nicotinamide] | < 10 nM
C[C@H](N)[C@H](Nc1nc(Nc2ccc3c(c2)c(N2CCCC2)nn3C)c(C(N)=O)cc1F)C1CC1 [Example 2-430, 6-(((1R,2S)-2-amino-1-cyclopropylpropyl)amino)-5-fluoro-2-((1-methyl-3-(pyrrolidin-1-yl)-1H-indazol-5-yl)amino)nicotinamide] | 10 to 50 nM
Cn1nc(N2CCCC2=O)c2cc(Nc3nc(N[C@@H]4CCCC[C@@H]4N)c(F)cc3C(N)=O)ccc21 [Example 2-431, 6-(((1R,2S)-2-aminocyclohexyl)amino)-5-fluoro-2-((1-methyl-3-(2-oxopyrrolidin-1-yl)-1H-indazol-5-yl)amino)nicotinamide] | 10 to 50 nM
Cc1ccc(Nc2nc(N[C@@H]3CCCC[C@@H]3N)c(F)cc2C(N)=O)cc1 [Example 2-435, 6-(((1R,2S)-2-aminocyclohexyl)amino)-5-fluoro-2-(p-tolylamino)nicotinamide] | < 10 nM
NC(=O)c1cc(F)c(N[C@@H]2CCCC[C@@H]2N)nc1Nc1cccc(OC(F)(F)F)c1 [Example 2-444, 6-(((1R,2S)-2-aminocyclohexyl)amino)-5-fluoro-2-((3-(trifluoromethoxy)phenyl)amino)nicotinamide] | < 10 nM
Cc1ccc(Nc2nc(N[C@@H]3CCCC[C@@H]3N)c(F)cc2C(N)=O)cc1Cl [Example 2-445, 6-(((1R,2S)-2-aminocyclohexyl)amino)-2-((3-chloro-4-methylphenyl)amino)-5-fluoronicotinamide] | < 10 nM
